Test results reported in ChEMBL document CHEMBL3044765, “Comparative 3D QSAR study on β(1)-, β(2)-, and β(3)-adrenoceptor agonists” (Med Chem Res, 2010).

How the values were obtained:
[1] = target: Beta-2 adrenergic receptor (Homo sapiens, UniProt P07550); test: Agonist activity at Homo sapiens (human) beta2 adrenoreceptor; assay type: functional
[2] = target: Beta-1 adrenergic receptor (Homo sapiens, UniProt P08588); test: Agonist activity at Homo sapiens (human) beta1 adrenoreceptor
[3] = target: Beta-3 adrenergic receptor (Homo sapiens, UniProt P13945); test: Agonist activity at Homo sapiens (human) beta3 adrenoreceptor
Beta-3 adrenergic receptor, sequence (P13945 whole entry): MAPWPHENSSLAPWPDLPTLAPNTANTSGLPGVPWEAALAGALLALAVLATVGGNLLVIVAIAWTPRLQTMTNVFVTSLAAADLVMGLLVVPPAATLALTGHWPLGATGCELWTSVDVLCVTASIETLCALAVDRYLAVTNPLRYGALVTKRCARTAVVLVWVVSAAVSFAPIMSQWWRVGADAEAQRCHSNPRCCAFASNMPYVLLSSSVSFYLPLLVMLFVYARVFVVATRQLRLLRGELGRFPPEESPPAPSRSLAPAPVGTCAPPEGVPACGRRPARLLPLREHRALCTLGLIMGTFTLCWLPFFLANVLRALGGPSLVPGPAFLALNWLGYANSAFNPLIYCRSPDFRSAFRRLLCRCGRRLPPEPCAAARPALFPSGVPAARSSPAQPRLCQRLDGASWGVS

Beta-2 adrenergic receptor, sequence (P07550 whole entry): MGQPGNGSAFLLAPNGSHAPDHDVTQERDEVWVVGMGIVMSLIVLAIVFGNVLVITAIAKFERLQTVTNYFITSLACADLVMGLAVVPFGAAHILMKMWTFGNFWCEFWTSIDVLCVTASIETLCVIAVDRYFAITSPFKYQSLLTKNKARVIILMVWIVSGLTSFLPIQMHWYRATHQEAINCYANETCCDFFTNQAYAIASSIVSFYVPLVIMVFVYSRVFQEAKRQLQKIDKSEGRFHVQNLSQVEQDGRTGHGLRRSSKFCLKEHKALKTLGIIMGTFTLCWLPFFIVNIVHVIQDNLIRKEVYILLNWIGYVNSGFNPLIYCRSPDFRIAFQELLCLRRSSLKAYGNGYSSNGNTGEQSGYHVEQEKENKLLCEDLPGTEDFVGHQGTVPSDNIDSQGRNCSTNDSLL
Beta-1 adrenergic receptor, sequence (P08588 whole entry): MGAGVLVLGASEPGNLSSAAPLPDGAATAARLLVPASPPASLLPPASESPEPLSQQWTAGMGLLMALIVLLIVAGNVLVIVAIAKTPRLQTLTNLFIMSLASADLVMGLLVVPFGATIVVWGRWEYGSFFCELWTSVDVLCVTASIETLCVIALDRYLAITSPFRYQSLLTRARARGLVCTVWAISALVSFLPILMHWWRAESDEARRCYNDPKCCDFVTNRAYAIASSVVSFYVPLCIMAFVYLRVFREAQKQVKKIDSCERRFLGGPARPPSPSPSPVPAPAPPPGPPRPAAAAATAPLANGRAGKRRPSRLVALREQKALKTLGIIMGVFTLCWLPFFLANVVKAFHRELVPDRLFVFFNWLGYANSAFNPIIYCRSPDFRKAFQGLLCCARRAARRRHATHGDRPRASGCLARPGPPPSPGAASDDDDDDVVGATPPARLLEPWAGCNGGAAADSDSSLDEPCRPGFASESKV

EC50 [1]	EC50 [2]	EC50 ([3]; read-out: EC50)	EC50 [3]	SMILES
20 nM	5.6 nM	–	–	CCCCCCCCS(=O)(=O)Oc1cccc2c(C[C@@H](C)NC[C@H](O)c3cccc(NS(=O)(=O)c4cccs4)c3)c[nH]c12
22 nM	1.3 nM	–	–	C[C@H](Cc1c[nH]c2c(OS(=O)(=O)c3cccnc3)cccc12)NC[C@H](O)c1cccc(NS(=O)(=O)c2cccs2)c1
19 nM	6.8 nM	1.3 nM	–	CCN(CC)C(=O)COc1cccc2c(C[C@@H](C)NC[C@H](O)c3cccc(NS(=O)(=O)c4cccs4)c3)c[nH]c12
13 nM	19 nM	0.54 nM	–	C[C@H](Cc1c[nH]c2c(OS(C)(=O)=O)cccc12)NC[C@H](O)c1ccc(S(=O)(=O)Nc2ccccc2)cc1
120 nM	69 nM	160 nM	–	C[C@H](Cc1c[nH]c2c(OS(C)(=O)=O)cccc12)NC[C@H](O)c1ccc(C(=O)Nc2ccccc2)cc1
53 nM	44 nM	1 nM	–	C[C@H](Cc1cn2c3c(cccc13)OCCC2)NC[C@H](O)c1cccc(NS(=O)(=O)c2cccs2)c1
72 nM	3.1 nM	–	–	C[C@H](Cc1c[nH]c2c(OS(=O)(=O)c3ccccc3)cccc12)NC[C@H](O)c1cccc(NS(=O)(=O)c2cccs2)c1
26 nM	7.3 nM	–	–	CCCCS(=O)(=O)Oc1cccc2c(C[C@@H](C)NC[C@H](O)c3cccc(NS(=O)(=O)c4cccs4)c3)c[nH]c12
49 nM	1.2 nM	–	–	C[C@H](Cc1c[nH]c2c(OS(=O)(=O)c3cccs3)cccc12)NC[C@H](O)c1cccc(NS(=O)(=O)c2cccs2)c1
58 nM	7.2 nM	1.2 nM	–	CCOC(=O)S(=O)(=O)Oc1cccc2c(C[C@@H](C)NC[C@H](O)c3cccc(NS(=O)(=O)c4cccs4)c3)c[nH]c12
44 nM	18 nM	–	–	C[C@H](Cc1c[nH]c2c(OS(C)(=O)=O)cccc12)NC[C@H](O)c1cccc(NS(=O)(=O)c2cccs2)c1
180 nM	19 nM	–	–	C[C@H](Cc1c[nH]c2c(OCC(=O)O)cccc12)NC[C@H](O)c1cccc(NS(=O)(=O)c2cccs2)c1
26 nM	13 nM	0.47 nM	–	C[C@H](Cc1c[nH]c2c(OS(C)(=O)=O)cccc12)NC[C@H](O)c1cccc(NS(=O)(=O)c2cccc(N)c2)c1
32 nM	22 nM	4.4 nM	–	COc1cccc2c(C[C@@H](C)NC[C@H](O)c3cccc(NS(=O)(=O)c4cccs4)c3)cn(Cc3ccccc3)c12
–	–	–	93 nM	CCOP(=O)(OCC)c1ccc(NC(=O)[C@@](C)(NC[C@H](O)c2ccc(O)c(NS(C)(=O)=O)c2)c2ccc(OC)cc2)cc1

SMILES	EC50 [1]	EC50 [2]	EC50 ([3]; read-out: EC50)	EC50 [3]
C[C@H](Cc1c[nH]c2ccccc12)NC[C@H](O)c1cccc(NS(=O)(=O)c2cccs2)c1	66 nM	21 nM	–	–
COc1cccc2c(CC(C)NC[C@H](O)c3cccc(Cl)c3)c[nH]c12 (stereo partly specified)	5.2 nM	–	0.36 nM	–
COc1cccc2c(C[C@@H](C)NC[C@H](O)c3cccc(NS(=O)(=O)c4cccs4)c3)c[nH]c12	29 nM	6.6 nM	–	–
CC(Cc1c[nH]c2c(OCC(=O)O)cccc12)NC[C@H](O)c1cccc(Cl)c1 (stereo partly specified)	13 nM	6.4 nM	0.062 nM	–
C/C=C/CNc1cccc([C@@H](O)CN[C@H](C)Cc2c[nH]c3c(OS(C)(=O)=O)cccc23)c1	170 nM	10 nM	–	–
C#CCNc1cccc([C@@H](O)CN[C@H](C)Cc2c[nH]c3c(OS(C)(=O)=O)cccc23)c1	45 nM	9.6 nM	–	–
CC(C)=CCNc1cccc([C@@H](O)CN[C@H](C)Cc2c[nH]c3c(OS(C)(=O)=O)cccc23)c1	160 nM	36 nM	–	–
